Reference: article PMC6222871, “Suppression of Hepatitis C Virus Genome Replication and Particle Production by a Novel Diacylglycerol Acyltransferases Inhibitor” (Molecules : A Journal of Synthetic Chemistry and Natural …, 2018)

Columns and labels:
[1] = test system: HCV; design: method as in PMID 27788579; conditions: read-out: EC50 in vitro; cited from earlier work
[2] = test system: HCV genotype 2a (Huh7.5-J6/JFH1); experiment: HCV particle production: infectivity of supernatant on naive Huh7.5 cells by real-time RT-PCR; assay type: cell-based, hepatitis C virus; conditions: Hepatitis C virus, read-out: EC50 on HCV particle production
Experimental: A922500, a commercially available DGAT-1-specific inhibitor was used as a positive control [10]. […] Therefore, we decided to examine effects of these twelve DGAT inhibitors on HCV particle production as well as RNA genome replication in parallel. For this purpose, we transfected Huh7.5 cells with in vitro-transcribed genotype 2a HCV RNAs (Huh7.5-J6/JFH1) [16] and treated them with each DGAT inhibitor for 6 and 72 h at 10 μM. HCV genome replication as well as host GAPDH RNA levels was quantitated by a real-time RT-PCR analysis. For assessment of HCV particle production, we harvested and filtered the supernatant from Huh7.5-J6/JFH1 cells treated with DGAT inhibitors and incubated the supernatant with naïve huh7.5 cells for 72 h. Then, infectivity was measured by a real-time RT-PCR analysis.
Huh7.5-J6/JFH-1 cells were seeded into 6-well plates at a density of 3 × 10^5 cells per well with DMEM containing 10% FBS. […] Total RNAs were extracted from treated cells and virus-containing media were harvested at each time point. Naïve Huh7.5 cells were infected with these virus-containing media after concentration with centricons.

[3] = test system: Huh7.5 cells; experiment: TG quantification assay in Huh7.5 cells; assay type: cell-based; conditions: 20 μM
Experimental: Cells were washed with cold PBS, suspended, and homogenized in 1 mL of 5% NP-40/ddH2O solution. Then, homogenized cells were slowly heated to 90 °C for 5 min or until the NP-40 becomes cloudy, then cooled down to room temperature. Previous step was repeated to solubilize all TG. Cells were centrifuged for 2 min at top speed using a microcentrifuge to remove any insoluble material. Samples were diluted 10-fold with ddH2O before proceeding with the assay. […] Samples were added with 50 μL of reaction mix into each well and incubated at room temperature for 60 min while protected from light. Fluorescence was measured by using a fluorometric reader with Ex/Em = 535/590 nm. The amount of TG from standard sample was calculated using the following equation: Ts=Corrected absorbance−(y−intercept)/slope The amount of intracellular TG was calculated using the following equation: Concentration=Ts/Sv*D where the Ts is the amount of TG from standard curve and Sv is the volume of sample added to sample wells and D is the sample dilution factor.

[4] = test system: recombinant DGAT-1; design: method as in PMID 23242135; conditions: recombinant DGAT-1, [14C] oleoyl-CoA as acyl-donor; cited from earlier work
[5] = test system: Huh7.5 cells; experiment: visualization of intracellular LD by BODIPY in Huh7.5 cells; assay type: cell-based; conditions: 20 μM, 72 h
Experimental: Huh7.5 cells were incubated in a 24-well plate on top of coverslip in the presence of either DMSO, 8 μM of 10j, or 20 μM of A922500 for 72 h. Then, Huh7.5 cells were fixed by using 4% paraformaldehyde for 15 min and stained with 0.001% BODIPY 493/503 D3922 (Invitrogen, Carlsbad, CA, USA) for 10 min. The coverslips were mounted onto slides using Prolong Gold anti-fade reagent with DAPI (Invitrogen, Carlsbad, CA, USA) Fluorescence were examined and captured by Nikon confocal laser scanning microscopic system. LD content was quantified using the ImageJ program.

[6] = test system: HCV genotype 2a (Huh7.5-J6/JFH1); experiment: microbe, parasite or virus in culture; conditions: Hepatitis C virus, read-out: EC50 on HCV genome replication
Text: We previously synthesized and characterized twelve DGAT inhibitors with a different DGAT specificity. […] A922500, a commercially available DGAT-1-specific inhibitor was used as a positive control. In spite of a wealth of knowledge on an essential role of DGAT-1 in the HCV particle assembly and production, less attention has been paid to potential functions of DGATs in other steps of the viral life cycle. Therefore, we decided to examine effects of these twelve DGAT inhibitors on HCV particle production as well as RNA genome replication in parallel. For this purpose, we transfected Huh7.5 cells with in vitro-transcribed genotype 2a HCV RNAs (Huh7.5-J6/JFH1) and treated them with each DGAT inhibitor for 6 and 72 h at 10 μM. HCV genome replication as well as host GAPDH RNA levels was quantitated by a real-time RT-PCR analysis. For assessment of HCV particle production, we harvested and filtered the supernatant from Huh7.5-J6/JFH1 cells treated with DGAT inhibitors and incubated the supernatant with naïve huh7.5 cells for 72 h. Then, infectivity was measured by a real-time RT-PCR analysis.
Quantitative real-time RT-PCR analysis to measure levels of HCV RNA and GAPDH was conducted as previously described. The cDNA synthesis and reverse transcription of miR-122 were performed by using Taqman quantitative RT-PCR (qRT-PCR) analysis. Taqmanq RT-PCR components including TaqMan miR122 probe, endogenous control U6 probe, TaqMan® MicroRNA reverse transcription Kit and TaqMan® universal master mix II were purchased from Thermo Fisher Scientific (Waltham, MA, USA)
Huh7.5-J6/JFH-1 cells were seeded into 6-well plates at a density of 3 × 10^5 cells per well with DMEM containing 10% FBS. After 24 h, they are incubated with either DMSO, increasing concentrations of 10j for 3, 6, 12, 24, 48, and 72 h, or increasing concentrations of A922500 for 6, 12, 24, 48, and 72 h. Total RNAs were extracted from treated cells and virus-containing media were harvested at each time point. Naïve Huh7.5 cells were infected with these virus-containing media after concentration with centricons. Total RNAs were extracted from Huh7.5 cells infected with virus-containing media. qRT-PCR analysis was performed to measure effect of 10j on HCV replication and virus particle production.

[7] = test system: JFH1-NS5A-GFP cells; experiment: NS5A-GFP and Oil Red O imaging in JFH1-NS5A-GFP cells; assay type: cell-based, hepatitis C virus
Experimental: Based on previous results, we noticed that EC50 values required for inhibition of the HCV genome replication by 10j were around 1–2 μM ranges (Figure 2 and Table 3). However, IC50 value required for inhibition of the enzymatic DGAT activities in vitro by 10j was reported to be higher than 5 μM (Table 2 and Figure 6E). Based on these observations, we hypothesized that inhibition of DGATs by 10j may not play a direct role in suppression of the viral genome replication. To test this hypothesis, we decided to study effects of 10j on DGAT and the viral genome replication in a simultaneous manner. […] Then, the viral NS3 protein and LDs were visualized by using an anti-NS3 antibody and BODIPY, respectively. […] Significant reduction of LD was only seen after treatment of 10j higher than 5 μM. In order to confirm this observation, we decided to utilize another HCV-positive cell—JFH1-NS5A-GFP cells—which were infected with infectious HCV genotype 2a particles with a visually tractable NS5A due to the presence of in-frame-fused GFP protein with NS5A. TGs of these cells were stained with ORO for visualization in parallel. […]
Immunofluorescence analysis of Huh7.5-J6/JFH1 or Huh7.5-JFH1-5A-GFP cells in the presence of 10j was conducted as previously described. Fluorescence were examined and captured by Nikon confocal laser scanning microscopic system. LD content was quantified using the ImageJ program.

[8] = MTT-based cell viability assay (EZ-CYTOX); conditions: human
Experimental: (§1) To order to study impacts of DGAT inhibitors on HCV genome replication independently of the particle production, we decided to examine effects of these twelve DGAT inhibitors on the levels of viral RNA genome and cell viability in parallel. […] Then, we treated them with an increasing concentration of each DGAT inhibitor. Then, luciferase and MTT-based cell viability assays were performed to determine EC50 and CC50 (cytotoxic concentration required to kill 50% of treated cells) values, respectively.
(§2) Cell viability was measured with EZ-CYTOX (10% tetrazolium salt; Dogen, Gyeonggi-do, Korea) as described previously. Anti-HCV replication analysis using a luciferase assay was conducted as previously described.

[9] = test system: luciferase-linked genotype 2a HCV RNAs; experiment: microbe, parasite or virus in culture; assay type: cell-based, hepatitis C virus; conditions: Hepatitis C virus, Huh7.5, luciferase-linked genotype 2a HCV RNA in Huh7.5 cells; read-out: EC50 (HCV replication)
Experimental: as §1, §2

| SMILES | EC50 [1] | EC50 ([2]; Huh7.5, 6 h) | EC50 ([2]; Huh7.5, 12 h) | EC50 ([2]; Huh7.5, 24 h) | EC50 ([2]; Huh7.5, 48 h) | EC50 ([2]; Huh7.5, 72 h) | suppression of endogenous level of TG [3] | IC50 [4] | increase in the level of LDs (BODIPY) [5] | EC50 ([6]; 6 h) | EC50 ([6]; 12 h) | EC50 ([6]; 24 h) | EC50 ([6]; 48 h) | EC50 ([6]; 72 h) | abundance of GFP-tagged NS5A proteins or ORO-stained LDs [7] | CC50 [8] | EC50 [9] |
| --- | --- | --- | --- | --- | --- | --- | --- | --- | --- | --- | --- | --- | --- | --- | --- | --- | --- |
| O=C(O)C[C@H]1CC[C@H](c2ccc(-c3ccc(Nc4ccc(C(F)(F)F)nc4)cn3)cc2)CC1 [pradigastat] | 30 µM | – | – | – | – | – | – | – | – | – | – | – | – | – | – | – | – |
| O=C(Nc1ccccc1)Nc1ccc(-c2ccc(C(=O)[C@@H]3CCC[C@H]3C(=O)O)cc2)cc1 [A922500, reference compound] | – | 34.3 µM | 76.6 µM | 68.6 µM | 42.2 µM | 22 µM | 25% | 0.007 µM | 45% | > 100 µM | > 100 µM | > 100 µM | > 100 µM | > 100 µM | failed to induce any significant changes | 71.9 µM | 50.8 µM |
